The values that follow come from patent US9540343B2 (Gilead Sciences, Inc., priority 2011, dated 2017).

A short description of one data set: in vitro. The following applies: human, uninfected MT-4 cells, CC50 (nM), same protocol as Test A, CellTiter-Glo. In outline:
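Cytoprotection read-out: CellTiter-Glo chemiluminescence after 5 days at 37 °C of HIV-IIIb-infected MT-4 cells (m.o.i. 0.003) with compound in 10-point 3-fold dilutions, quadruplicate, 10% FBS. Cytotoxicity (CC50) measured identically without virus.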

The test system of a further data set is HIV-IIIb. The data set is described as follows: Test A: Antiviral assay in MT4 cells. The class given is cell-based, HIV-1. The following applies: Human immunodeficiency virus 1, IIIB, MT4, 120 h, read-out: % inhibition at 2 μM, percent inhibition of virus-induced cell killing, from dose response curve at 2 uM drug; MT-4 cells infected with HIV-IIIb, 5 days, CellTiter-Glo. A general note: ATP-based viability assays read luminescence as a measure of living cells.

Structures are written as SMILES.

For `O=C(Cn1nc(C(F)F)c2c1C(F)(F)C1CC21)N[C@@H](Cc1cc(F)cc(F)c1)c1ncccc1-c1ccc(OC2CC2)cc1` (stereo partly drawn) [Example 268, N—((S)-1-(3-(4-cyclopropoxyphenyl)pyridin-2-yl)-2-(3,5-difluorophenyl)ethyl)-2-(3-(difluoromethyl)-5,5-difluoro-3b,4,4a,5-tetrahydro-1H-cyclopropa[3,4]cyclopenta[1,2-c]pyrazol-1-yl)acetamide], in “in vitro”, the midpoint of cytotoxicity, the CC50 at 5 days, lay at 27700 nM. In the data set with HIV-IIIb, the inhibition at 2 µM is 27%.

The compound `NC(=O)c1cc(-c2cccnc2[C@H](Cc2cc(F)cc(F)c2)NC(=O)CN2CC(=O)Nc3ccccc32)ccc1F` [Example 269, (S)-5-(2-(2-(3,5-difluorophenyl)-1-(2-(3-oxo-3,4-dihydroquinoxalin-1(2H)-yl)acetamido)ethyl)pyridin-3-yl)-2-fluorobenzamide] gave a CC50 at 5 days in “in vitro” of over 53200 nM. The inhibition at 2 µM in the data set on HIV-IIIb came to 8%.

As for `NC(=O)c1cc(-c2cccnc2[C@H](Cc2cc(F)cc(F)c2)NC(=O)Cn2nc(C(F)(F)F)c3c2CCNC3=O)ccc1F` [Example 270C, (S)-5-(2-(2-(3,5-difluorophenyl)-1-(2-(4-oxo-3-(trifluoromethyl)-4,5,6,7-tetrahydro-1H-pyrazolo[4,3-c]pyridin-1-yl)acetamido)ethyl)pyridin-3-yl)-2-fluorobenzamide], the CC50 at 5 days in the data set “in vitro” was over 53200 nM. The inhibition at 2 µM in the data set with HIV-IIIb was 1%.

For the compound `NC(=O)c1cc(-c2cccnc2[C@H](Cc2cc(F)cc(F)c2)NC(=O)Cn2nc(C(F)(F)F)c3cc(F)ccc32)ccc1F` [Example 271B, (S)-5-(2-(2-(3,5-difluorophenyl)-1-(2-(5-fluoro-3-(trifluoromethyl)-1H-indazol-1-yl)acetamido)ethyl)pyridin-3-yl)-2-fluorobenzamide], in “in vitro”, the CC50 at 5 days was 11400 nM. Further, the inhibition at 2 µM in the data set with HIV-IIIb came to 15%.

In “in vitro”, `CC1CCCc2c1c(C(F)(F)F)nn2CC(=O)N[C@@H](Cc1cc(F)cc(F)c1)c1ncccc1-c1ccc(F)c(C(N)=O)c1` (stereo partly drawn) [Example 272F, 5-(2-((1S)-2-(3,5-difluorophenyl)-1-(2-(4-methyl-3-(trifluoromethyl)-4,5,6,7-tetrahydro-1H-indazol-1-yl)acetamido)ethyl)pyridin-3-yl)-2-fluorobenzamide] gave a CC50 at 5 days of 14300 nM. For the same compound, the inhibition at 2 µM in the data set on HIV-IIIb turned out to be 92%.

In turn, `NC(=O)c1cc(-c2cccnc2[C@H](Cc2cc(F)cc(F)c2)NC(=O)Cn2nc(C(F)(F)F)c3c2C(=O)CCC3)ccc1F` [Example 273, (S)-5-(2-(2-(3,5-difluorophenyl)-1-(2-(7-oxo-3-(trifluoromethyl)-4,5,6,7-tetrahydro-1H-indazol-1-yl)acetamido)ethyl)pyridin-3-yl)-2-fluorobenzamide] yielded a CC50 at 5 days in “in vitro” of 29600 nM. Further, in the data set on HIV-IIIb, the inhibition at 2 µM came out at 10%.

In the case of `CC(C)(C)OC(=O)N1CCc2c(c(C(F)(F)F)nn2CC(=O)N[C@@H](Cc2cc(F)cc(F)c2)c2ncccc2-c2ccc(F)c(C(N)=O)c2)C1` [Example 274, (S)-tert-butyl 1-(2-(1-(3-(3-carbamoyl-4-fluorophenyl)pyridin-2-yl)-2-(3,5-difluorophenyl)ethylamino)-2-oxoethyl)-3-(trifluoromethyl)-6,7-dihydro-1H-pyrazolo[4,3-c]pyridine-5(4H)-carboxylate], in “in vitro”, the CC50 at 5 days was 11000 nM. For the same compound, the inhibition at 2 µM with HIV-IIIb turned out to be 0%.

The compound `Cc1c(Br)c(C(F)(F)F)nn1CC(=O)N[C@@H](Cc1cc(F)cc(F)c1)c1ncccc1-c1ccc(F)c(C(N)=O)c1` [Example 275, (S)-5-(2-(1-(2-(4-bromo-5-methyl-3-(trifluoromethyl)-1H-pyrazol-1-yl)acetamido)-2-(3,5-difluorophenyl)ethyl)pyridin-3-yl)-2-fluorobenzamide] gave a half-maximal cytotoxic concentration (CC50) at 5 days in “in vitro” of 16900 nM. For the same compound, the inhibition at 2 µM with HIV-IIIb was determined as 53%.

In the data set “in vitro”, `NC(=O)c1cc(-c2cccnc2[C@H](Cc2cc(F)cc(F)c2)NC(=O)Cn2cc(C3CC3)c(C(F)(F)F)n2)ccc1F` [Example 276, (S)-5-(2-(1-(2-(4-cyclopropyl-3-(trifluoromethyl)-1H-pyrazol-1-yl)acetamido)-2-(3,5-difluorophenyl)ethyl)pyridin-3-yl)-2-fluorobenzamide] registered a CC50 at 5 days of 16900 nM. Further, the inhibition at 2 µM in the data set on HIV-IIIb came out at 29%.

In the data set “in vitro”, `NC(=O)c1cc(-c2cccnc2[C@H](Cc2cc(F)cc(F)c2)NC(=O)Cn2nc(C(F)(F)F)c3c2CCCC32CC2)ccc1F` [Example 277B, (S)-5-(2-(2-(3,5-difluorophenyl)-1-(2-(3′-(trifluoromethyl)-6′,7′-dihydrospiro[cyclopropane-1,4′-indazole]-1′(5′H)-yl)acetamido)ethyl)pyridin-3-yl)-2-fluorobenzamide] came in with a CC50 at 5 days of 19300 nM. Also, the inhibition at 2 µM with HIV-IIIb is 96%.

`Cc1cc2ncn(CC(=O)N[C@@H](Cc3cc(F)cc(F)c3)c3ncccc3-c3cccc(C(N)=O)c3)c2cc1C` [Example 278, (S)-3-(2-(2-(3,5-difluorophenyl)-1-(2-(5,6-dimethyl-1H-benzo[d]imidazol-1-yl)acetamido)ethyl)pyridin-3-yl)benzamide]: half-maximal cytotoxicity in “in vitro” (CC50 at 5 days) was put at 8530 nM. For the same compound, the inhibition at 2 µM with HIV-IIIb was 121%.

`Cc1cc2ncn(CC(=O)N[C@H](Cc3cc(F)cc(F)c3)c3ncncc3-c3ccc(Cl)cc3)c2cc1C` [Example 279G, (R)—N-(1-(5-(4-chlorophenyl)pyrimidin-4-yl)-2-(3,5-difluorophenyl)ethyl)-2-(5,6-dimethyl-1H-benzo[d]imidazol-1-yl)acetamide] had a CC50 at 5 days in “in vitro” of 9300 nM. The inhibition at 2 µM in the data set with HIV-IIIb was found to be 82%.

`CCc1c(C#CC(C)(C)C)c(C(F)(F)F)nn1CC(=O)N[C@@H](Cc1cc(F)cc(F)c1)c1ncccc1-c1ccc(F)c(C(N)=O)c1` [Example 280, (S)-5-(2-(2-(3,5-difluorophenyl)-1-(2-(4-(3,3-dimethylbut-1-ynyl)-5-ethyl-3-(trifluoromethyl)-1H-pyrazol-1-yl)acetamido)ethyl)pyridin-3-yl)-2-fluorobenzamide] yielded a CC50 at 5 days in “in vitro” of 4180 nM. Moreover, the inhibition at 2 µM with HIV-IIIb worked out at 0%.

On to `NC(=O)c1cc(-c2cccnc2[C@H](Cc2cc(F)cc(F)c2)NC(=O)Cn2nc(C(F)(F)F)c3c2C(=O)CC3)ccc1F` [Example 281C, (S)-5-(2-(2-(3,5-difluorophenyl)-1-(2-(6-oxo-3-(trifluoromethyl)-5,6-dihydrocyclopenta[c]pyrazol-1(4H)-yl)acetamido)ethyl)pyridin-3-yl)-2-fluorobenzamide], for which the CC50 at 5 days in the data set “in vitro” came out at 28300 nM. Besides, the inhibition at 2 µM in the data set on HIV-IIIb came to 5%.

The compound `NC(=O)c1cc(-c2cccnc2[C@H](Cc2cc(F)cc(F)c2)NC(=O)COc2cc[nH]c(=O)c2)ccc1F` [Example 282, (S)-5-(2-(2-(3,5-difluorophenyl)-1-(2-(2-oxo-1,2-dihydropyridin-4-yloxy)acetamido)ethyl)pyridin-3-yl)-2-fluorobenzamide] showed a CC50 at 5 days in “in vitro” of over 53200 nM. In addition, the inhibition at 2 µM in the data set with HIV-IIIb turned out to be 0%.

The compound `NC(=O)c1cc(-c2cccnc2[C@H](Cc2cc(F)cc(F)c2)NC(=O)Cn2nc(C(F)(F)F)c3c2C(F)(F)CC3)ccc1F` [Example 283C, (S)-5-(2-(1-(2-(6,6-difluoro-3-(trifluoromethyl)-5,6-dihydrocyclopenta[c]pyrazol-1(4H)-yl)acetamido)-2-(3,5-difluorophenyl)ethyl)pyridin-3-yl)-2-fluorobenzamide] returned a CC50 at 5 days in “in vitro” of 24400 nM. Moreover, in the data set on HIV-IIIb, the inhibition at 2 µM was determined as 65%.

Turning to `NC(=O)c1cc(-c2cccnc2[C@H](Cc2cc(F)cc(F)c2)NC(=O)Cn2nc(C(F)F)c3c2C(F)(F)CCC3=O)ccc1F` [Example 285G, (S)-5-(2-(1-(2-(3-(difluoromethyl)-7,7-difluoro-4-oxo-4,5,6,7-tetrahydro-1H-indazol-1-yl)acetamido)-2-(3,5-difluorophenyl)ethyl)pyridin-3-yl)-2-fluorobenzamide], the midpoint of cytotoxicity in “in vitro”, the CC50 at 5 days, lay at 48500 nM. The inhibition at 2 µM in the data set on HIV-IIIb came to 58%.

As for `O=C(Cn1cnc2c1CCCC2)N[C@@H](Cc1cc(F)cc(F)c1)c1ncccc1Br` [Example 286, (S)—N-(1-(3-bromopyridin-2-yl)-2-(3,5-difluorophenyl)ethyl)-2-(4,5,6,7-tetrahydro-1H-benzo[d]imidazol-1-yl)acetamide], the midpoint of cytotoxicity in “in vitro”, the CC50 at 5 days, lay at 25200 nM. Moreover, the inhibition at 2 µM in the data set with HIV-IIIb was determined as 0%.

`CNc1ccc(-c2cccnc2[C@H](Cc2cc(F)cc(F)c2)NC(=O)Cn2nc(C(F)F)c3c2C(F)(F)CCC3(F)F)cn1` [Example 287E, (S)-2-(3-(difluoromethyl)-4,4,7,7-tetrafluoro-4,5,6,7-tetrahydro-1H-indazol-1-yl)-N-(2-(3,5-difluorophenyl)-1-(6′-(methylamino)-3,3′-bipyridin-2-yl)ethyl)acetamide]: in the data set “in vitro”, the CC50 at 5 days worked out at 16000 nM. Further, the inhibition at 2 µM in the data set on HIV-IIIb amounted to 98%.

In the data set “in vitro”, `O=C(Cn1nc(C(F)F)c2c1C(F)(F)CCC2(F)F)N[C@@H](Cc1cc(F)cc(F)c1)c1ncncc1-c1cnc2[nH]ccc2c1` [Example 288, (S)—N-(1-(5-(1H-pyrrolo[2,3-b]pyridin-5-yl)pyrimidin-4-yl)-2-(3,5-difluorophenyl)ethyl)-2-(3-(difluoromethyl)-4,4,7,7-tetrafluoro-4,5,6,7-tetrahydro-1H-indazol-1-yl)acetamide] had a CC50 at 5 days of 16400 nM. In addition, the inhibition at 2 µM with HIV-IIIb worked out at 108%.

For `CCOC(=O)c1cn(CC(=O)N[C@@H](Cc2cc(F)cc(F)c2)c2ncccc2-c2ccc(F)c(C(N)=O)c2)nc1C(F)(F)F` [Example 289, (S)-ethyl 1-(2-(1-(3-(3-carbamoyl-4-fluorophenyl)pyridin-2-yl)-2-(3,5-difluorophenyl)ethylamino)-2-oxoethyl)-3-(trifluoromethyl)-1H-pyrazole-4-carboxylate], half-maximal cytotoxicity in “in vitro” (CC50 at 5 days) was put at 26400 nM. For the same compound, the inhibition at 2 µM with HIV-IIIb worked out at 2%.

The CC50 is the concentration giving 50% cytotoxicity. Broadly, the inhibition is the change of the read-out against control, counted positive when it falls.
